Converted amounts (≈) assume the structure as drawn. Like-named read-outs stand apart in the source and are kept apart here.
Columns and labels:
[1] = tested on: RICE JAP EFF; test: Test C rice paddy; assay type: in vivo, Japonica rice; conditions: Oryza sativa, 504 h, 21 days, read-out: plant response
Source text: (§1) Sixteen cm diameter Airlite plastic pots were partially filled with Tama slit loam soil and the soil saturated with water. Japonica and Indica rice seedlings a the 2.0 to 2.5 leaf stage were transplanted into 1/3 of the pots. Into another third of the pots were transplanted seedling or sprouted tubers of water plantain (Alisma trivale), Scripus (Scirpus paludosus), Cyperus (Cyperus esculentus), and arrowhead (Sagittaria spp.). The remaining pots were planted with barnyardgrass (Echinochloa crusgalli) seeds and sprouted tubes of water chestnut (Eleocharis spp.). These weeds all represent major rice weeds or genera of weeds important in rice. Three to four days after planting, the water level was raised to 3 cm (about 1200 ml/pot) and maintained a this level throughout the test. Chemical treatments were applied directly to the paddy water, within 24 hours of raising the water, after being formulated in a nonphytotoxic solvent. The pots were maintained in the greenhouse.

[2] = tested on: WATERCHESTNUT; test: Test C rice paddy; assay type: in vivo, Eleocharis spp.; conditions: Eleocharis, 504 h, 21 days, read-out: plant response
Source text: as §1

[3] = tested on: ARROWHEAD; test: Test C rice paddy; assay type: in vivo, Sagittaria spp.; conditions: Sagittaria, 504 h, 21 days, read-out: plant response
Source text: as §1

[4] = tested on: SCIRPUS; test: Test C rice paddy; assay type: in vivo, Scirpus paludosus; conditions: Bolboschoenus maritimus, 504 h, 21 days, read-out: plant response
Source text: as §1

[5] = tested on: RICE INDICA EFF; test: Test C rice paddy; assay type: in vivo; conditions: Oryza sativa, 504 h, 21 days, read-out: plant response
Source text: as §1

[6] = tested on: WATER PLAINTAIN; test: Test C rice paddy; assay type: in vivo, Alisma trivale; conditions: 504 h, 21 days, read-out: plant response
Source text: as §1

[7] = tested on: BARNYARDGRASS; test: Test C rice paddy; assay type: in vivo, Echinochloa crusgalli; conditions: Echinochloa crus-galli, 504 h, 21 days, read-out: plant response
Source text: as §1

[8] = tested on: Aspergillus fumigatus ATCC 28214; test: In vitro antifungal MIC, microtiter broth dilution; conditions: Aspergillus fumigatus, ATCC28214, 24 h, read-out: MIC values, A. fumigatus, 30°, 24 hours
[9] = tested on: Rhizoctonia solani; test: Example K cotton blight; assay type: in vivo; conditions: 336 h, 5 kg/ha, read-out: disease control rating, Ex. K
Description: […] Seeds and soil were then inoculated with a mixture of sand, cereal and mycelium of the fungus Rhizoctonia solani, causal agent of cotton blight, and incubated in a growth chamber at 30° C. for 14 days. Disease ratings were then made.

[10] = tested on: Erysiphe graminis f. sp. tritici; test: Example D wheat powdery mildew; assay type: in vivo; conditions: Blumeria graminis, 144 h; 100 PPM; read-out: disease control rating, Ex. D
Summary of the method: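 Compounds were dissolved in acetone (6% of final volume), then suspended at 100 or 20 ppm in purified water containing 250 ppm TREM 014 surfactant. Wheat seedlings were sprayed with this suspension to run-off.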

[11] = tested on: Candida albicans ATCC 11651; test: In vitro antifungal MIC, microtiter broth dilution; conditions: Candida albicans, ATCC11651, 24 h, read-out: MIC values, C. albicans, 30°, 24 hours
[12] = tested on: Fusarium oxysporum f. sp. cucumerinum; test: Example L cucumber wilt; assay type: in vivo; conditions: 336 h, 5 kg/ha, read-out: disease control rating, Ex. L
Description: […] Seeds and soil were then inoculated with a mixture of sand, cereal and mycelium of the fungus Fusarium oxysporum f. sp. cucumerinum, causal agent of cucumber wilt, and incubated in a growth chamber at 30° C. for 14 days. Disease ratings were then made.

[13] = tested on: Puccinia recondita; test: Example G wheat leaf rust; assay type: in vivo; conditions: 100 PPM, read-out: disease control rating, Ex. G
[14] = tested on: Pyricularia oryzae; test: whole plant or invertebrate; assay type: in vivo; conditions: Pyricularia oryzae, 120 h, read-out: disease control rating, Ex. E, 100 PPM
[15] = tested on: Cercosporidium personatum; test: Example B Peanut Late Leafspot; assay type: in vivo; conditions: Nothopassalora personata; 100 PPM; read-out: disease control rating, Ex. B
Summary of the method: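 Compounds were dissolved in acetone (6% of final volume) and suspended at 100 or 20 ppm in purified water containing 250 ppm TREM 014 surfactant (polyhydric alcohol esters). The suspension was sprayed to run-off on peanut seedlings.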

[16] = tested on: Candida albicans ATCC 11651; test: In vivo systemic Candida infection in mice, primary assay; parameters: species or system Candida albicans; CF-1 female mice; conditions: Candida albicans, 150 mg/kg per day, read-out: % Survival
Summary of the method: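 CF-1 female mice (20 g, 10 per group) were infected IV with 0.2 ml of 1×10^7/ml C. albicans ATCC 11651, then given test compound subcutaneously at 50 or 150 mg/kg/day at 1 and 6 h post-infection and once daily for three more days. Survival was followed for 21 days against infected untreated mice; ≥70% protection at 14 days was scored active.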

[17] = tested on: Botrytis cinerea; test: Example C bean grey mold; assay type: in vivo; conditions: Botrytis cinerea, 24 h, 100 PPM; read-out: disease control rating, Ex. C
Summary of the method: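 Test compounds were taken up in acetone (6% of final volume) and suspended at 100 or 20 ppm in purified water containing 250 ppm TREM 014 surfactant (polyhydric alcohol esters). Broad bean seedlings were sprayed with this suspension until run-off.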

[18] = tested on: Rhizoctonia solani; test: Example F rice sheath blight; assay type: in vivo; conditions: Rhizoctonia solani, 144 h, 100 PPM; read-out: disease control rating, Ex. F
Summary of the method: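 Compounds, dissolved in acetone at 6% of final volume, were suspended at 100 or 20 ppm in purified water with 250 ppm polyhydric alcohol ester surfactant (TREM 014). Rice seedlings were sprayed with this suspension to run-off.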

[19] = tested on: Phytophthora infestans; test: whole plant or invertebrate; assay type: in vivo; conditions: Phytophthora infestans, in Solanum lycopersicum, read-out: disease control rating, Ex. H, 100 PPM
[20] = tested on: Pythium aphanadermatum; test: Example J cucumber damping off; assay type: in vivo; conditions: Pythium, 336 h; 5 kg/ha; read-out: disease control rating, Ex. J
Summary of the method: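 Seeds and soil were inoculated with a mix of sand, cereal and Pythium aphanadermatum mycelium, the fungus responsible for cucumber damping off. They were kept in a growth chamber at 30° C. for 14 days, and disease was then rated to assess control.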

[21] = tested on: Venturia inaequalis; test: Example A apple scab; assay type: in vivo; conditions: 100 PPM, read-out: disease control rating, Ex. A
Summary of the method: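 Test compounds were dissolved in acetone (6% of final volume) and suspended at 100 or 20 ppm in purified water containing 250 ppm of the surfactant TREM 014 (polyhydric alcohol esters). Apple seedlings were sprayed with this suspension to the point of run-off.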

[22] = tested on: Sclerotium rolfsii; test: Example M southern blight; assay type: in vivo; conditions: Agroathelia rolfsii, 336 h; 5 kg/ha; read-out: disease control rating, Ex. M
Description: […] Seeds and soil were then inoculated with a mixture of sand, cereal and mycelium of the fungus Sclerotium rolfsii, causal agent of sourthern blight, and incubated in a growth chamber at 30° C. for 14 days. Disease ratings were then made.

[23] = tested on: Plasmorpara viticola; test: Example I grape downy mildew; assay type: in vivo; conditions: read-out: disease control rating, Ex. I
Summary of the method: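 First, each compound is taken up in acetone amounting to 6% of the final volume. It is then suspended in purified water containing 250 ppm of the polyhydric alcohol ester surfactant TREM 014, at 100 or 20 ppm. Finally, the suspension is sprayed onto grape seedlings until run-off.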

C=C(c1cccc(F)c1)C(O)(Cn1cncn1)c1ccc(F)cc1F (centres unmarked) [Example 18]
pest or weed control at 64 g/ha ([1]; 0064 G/HA): 0% | pest or weed control at 125 g/ha ([1]; 0125 G/HA): 0% | pest or weed control at 250 g/ha ([1]; 0250 G/HA): 0% | pest or weed control at 500 g/ha ([1]; 0500 G/HA): 50% | pest or weed control at 1000 g/ha ([1]; 1000 G/HA): 70% | pest or weed control at 64 g/ha ([2]; 0064 G/HA): 0% | pest or weed control at 125 g/ha ([2]; 0125 G/HA): 0% | pest or weed control at 250 g/ha ([2]; 0250 G/HA): 0% | pest or weed control at 500 g/ha ([2]; 0500 G/HA): 40% | pest or weed control at 1000 g/ha ([2]; 1000 G/HA): 50% | pest or weed control at 64 g/ha ([3]; 0064 G/HA): 0% | pest or weed control at 125 g/ha ([3]; 0125 G/HA): 0% | pest or weed control at 250 g/ha ([3]; 0250 G/HA): 0% | pest or weed control at 500 g/ha ([3]; 0500 G/HA): 20% | pest or weed control at 1000 g/ha ([3]; 1000 G/HA): 35% | pest or weed control at 64 g/ha ([4]; 0064 G/HA): 0% | pest or weed control at 125 g/ha ([4]; 0125 G/HA): 0% | pest or weed control at 250 g/ha ([4]; 0250 G/HA): 0% | pest or weed control at 500 g/ha ([4]; 0500 G/HA): 0% | pest or weed control at 1000 g/ha ([4]; 1000 G/HA): 0% | pest or weed control at 64 g/ha ([5]; 0064 G/HA): 0% | pest or weed control at 125 g/ha ([5]; 0125 G/HA): 0% | pest or weed control at 250 g/ha ([5]; 0250 G/HA): 0% | pest or weed control at 500 g/ha ([5]; 0500 G/HA): 30% | pest or weed control at 1000 g/ha ([5]; 1000 G/HA): 50% | pest or weed control at 64 g/ha ([6]; 0064 G/HA): 0% | pest or weed control at 125 g/ha ([6]; 0125 G/HA): 0% | pest or weed control at 250 g/ha ([6]; 0250 G/HA): 0% | pest or weed control at 500 g/ha ([6]; 0500 G/HA): 20% | pest or weed control at 1000 g/ha ([6]; 1000 G/HA): 40% | pest or weed control at 64 g/ha ([7]; 0064 G/HA): 0% | pest or weed control at 125 g/ha ([7]; 0125 G/HA): 0% | pest or weed control at 250 g/ha ([7]; 0250 G/HA): 0% | pest or weed control at 500 g/ha ([7]; 0500 G/HA): 40% | pest or weed control at 1000 g/ha ([7]; 1000 G/HA): 60%

C=C(c1ccc(F)cc1)C(O)(Cn1cncn1)c1ccccc1Cl (centres unmarked) [Example 646]
MIC [8]: 0.4 µg/mL (≈ 1.16 µM) | pest or weed control at 5000 g/ha [9]: 0% | pest or weed control at 100 ppm [10]: 98% | MIC [11]: 0.03 µg/mL (≈ 0.0873 µM) | pest or weed control at 5000 g/ha [12]: 0% | pest or weed control at 100 ppm [13]: 100% | pest or weed control at 100 ppm [14]: 97% | pest or weed control at 100 ppm [15]: 100% | responders at 150 mg/kg ([16]; ATCC11651, 168 h, day 7): 100% | responders at 150 mg/kg ([16]; ATCC11651, 336 h, day 14): 100% | responders at 150 mg/kg ([16]; ATCC11651, 504 h, day 21): 70% | pest or weed control at 100 ppm [17]: 95% | pest or weed control at 100 ppm [18]: 61% | pest or weed control at 100 ppm [19]: 0% | pest or weed control at 5000 g/ha [20]: 100% | pest or weed control at 100 ppm [21]: 100% | pest or weed control at 5000 g/ha [22]: 0% | pest or weed control at 100 ppm [23]: 99%

C=C(c1ccccc1F)C(O)(Cn1cncn1)c1ccc(F)cc1 (centres unmarked) [Example 10]
MIC [8]: 25 µg/mL (≈ 76.4 µM) | pest or weed control at 5000 g/ha [9]: 0% | pest or weed control at 100 ppm [10]: 63% | MIC [11]: 1.6 µg/mL (≈ 4.89 µM) | pest or weed control at 5000 g/ha [12]: 0% | pest or weed control at 100 ppm [13]: 64% | pest or weed control at 100 ppm [14]: 0% | pest or weed control at 100 ppm [15]: 76% | responders at 150 mg/kg ([16]; ATCC11651, 168 h, day 7): 20% | responders at 150 mg/kg ([16]; ATCC11651, 336 h, day 14): 10% | responders at 150 mg/kg ([16]; ATCC11651, 504 h, day 21): 0% | pest or weed control at 100 ppm [17]: 52% | pest or weed control at 100 ppm [18]: 17% | pest or weed control at 100 ppm [19]: 0% | pest or weed control at 5000 g/ha [20]: 0% | pest or weed control at 100 ppm [21]: 0% | pest or weed control at 5000 g/ha [22]: 0% | pest or weed control at 100 ppm [23]: 0%

From US4965280A, “Antifungal carbinols” (E. I. Du Pont de Nemours and Company, priority 1989, dated 1990)
